# Reference: patent US20240345376A1, “SYSTEM AND METHOD FOR NANOSCALE AXIAL LOCALIZATION AND SUPER […] IMAGING WITH HEIGHT-[…]” (The George Washington University, priority 2021, published 2024)
# Test system: SKBR3 cells
# Assay: Plasma membrane tension and bending modulus mapping from MAxSIM height fluctuation data in live cells
# Type: cell-based
# Details: 5 μM for 30 minutes, FIG. 12C
# Source text: Analysis of single-pixel-level plasma membrane biomechanics in live cells using the time-dependent membrane heights acquired by MAxSIM imaging: Utilizing MAxSIM technology, we mapped the membrane tension and bending modulus of plasma membranes in MCF7 cells (low HER2 expression) and SKBR3 (HER2 overexpression enabling constitutive HER2 activity). […] This approach, based on the Helfrich-Canham model, has been commonly employed in the literature, allowing the membrane tension (o) and bending modulus (K) to be linked to height fluctuations by the following equation.
# where ? |h(q)|^2 ? represents the power spectral density of the membrane height fluctuations, q is the wave vector, kbT is the thermal energy, σ is the membrane tension, and κ is the bending modulus. From fitting the raw experimental data to this function, membrane tension (σ) and bending modulus (κ) are extracted (FIGS. 12A, 12B, 12C). To identify mechanical compartments, we will utilize and compare various cluster analysis methods we have tested, including K-means analysis, which groups similar data points into K clusters based on their proximity to cluster centers, and DBscan, a density-based clustering algorithm that groups data points based on their proximity.
# 1. Super-resolution imaging and single-molecule-tracking tools and mechanical property measurements: a. […]
structure (smiles),measurement,value
C/C1=C/C(=O)O[C@@H]2C[C@@H](CC[C@H](C)/C=C\C=C\CC1)O[C@@](O)([C@@H]1CSC(=O)N1)C2 [latrunculin A],mechanical compartmentalization (membrane tension and bending modulus) on the basal plasma membrane,significant reduction
